# Results published in paper PMC3763632, “Radiosynthesis and Radiotracer Properties of a 7-(2-[^18F]Fluoroethoxy)-6-methoxypyrrolidinylquinazoline for Imaging of Phosphodiesterase 10A with PET” (Pharmaceuticals, 2012).
# “Also recorded” adds a separate entry of the source.
# What was measured:
# [1] = log D7.2-7.4 by shake-flask method; format: physicochemical; details: overall value from HPLC and shake-flask determinations; read-out: experimental log D7.0–7.4
# Experimental: To clarify these findings, we determined the ligand distribution coefficients for [^18/19F]IV experimentally, under physiological pH conditions in solid-liquid phase systems via retention on RP-HPLC, and in liquid-liquid phase systems by conventional shake-flask method. […] All in one, an experimental log D7.0–7.4 value of ~2.7 promised a good potential for brain uptake of [^18F]IV in vivo, attended by low unspecific binding.
# Log D7.2–7.4 values of [^18F]IV were determined using a conventional shake-flask method (multiple distribution in triplicates). Measurements of distribution coefficients were performed in 3 series at 21 °C between n-octanol and three aqueous buffer solutions, physiological phosphate-saline (0.1 M Na3PO4, 0.15 M NaCl, pH 7.2), phosphate buffer (KH2PO4/Na2HPO4•2H2O, 50 mM, pH 7.2) or TRIS-HCl buffer (50 mM, pH 7.4 at 21 °C). Solutions of [^18F]IV (2–5 MBq) in MeCN, MeOH (100 μL) or in 5% ethanol/0.9% NaCl (10 μL) were added to a 15 mL polypropylene tube (n = 3 per buffer system) containing a two-layer system of a selected aqueous solution (3 mL) and n-octanol (3 mL). […] Radioactivity of these samples was quantified using a calibrated γ-counter (Wallac WIZARD, Perkin Elmer, Waltham, MA, USA). […] Distribution coefficients and log D7.2–7.4 values of [^18F]IV were calculated with Microcal^TM Origin (6.0, Microcal Software, Inc., Northhampton, MA, USA).
# [2] = Chemical stability in vitro; format: physicochemical; details: for native [18F]IV remaining intact: up to 1.5 h
# Experimental: Furthermore, the chemical stability of [^18F]IV in vitro under physiological conditions was investigated. […] For formulation and storage, radioligand stability in acetonitrile (98%, 1 h, 80 °C) and in ethanol (98%, 1 h, 80 °C; ≥99%, 1.5 h, 40 °C) was proven.
# PDE10A [3] = assay: In vivo blocking study (pre-injection of PDE10A inhibitor); parameters: species or system mice
# Experimental: The observed slightly increase in the uptake of radioactivity in most organs might be caused by an increase in the free fraction of [^18F]IV in plasma or changes in physiological parameters such as blood flow due to high concentrations of the blocking compounds.
# Specificity of brain and in particular striatal uptake of [^18F]IV was investigated in blocking studies by intraperitoneal injection of 10 mg/kg of I [31] […] (n = 3), dissolved in 200 µL saline at 10 min before the radiotracer. Mice were sacrificed at 60 min p.i., and the radioligand uptake was determined as described above. Data listed in table 2 are given as mean values ± standard deviation (SD).
# PDE10A [4] = assay: Ex vivo autoradiography of mouse brain; format: in vivo, CD-1 mice; details: 30 min p.i. of 100 MBq
# Experimental: To determine the regional distribution of [^18F]IV in the brain in vivo, we also performed ex vivo autoradiography. In CD-1 mice brain, heterogeneous distribution of radioactivity was noticed at 30 min after [^18F]IV injection (Figure 5), but the localization of radioligand did neither correlate with the spatial distribution of PDE10A in the brain known from immunohistochemical and in vivo PET studies nor with the pattern of [^18F]IV binding in the brain in vitro (Figure 3A). […] The discrepancy in the pattern of [^18F]IV distribution between in vitro and ex vivo autoradiography most probably indicates off-target binding of the radiotracer in combination with to low target affinity. While the dissociation rate underlying low affinity towards PDE10A allows a detection in the closed system of an in vitro study, the dynamic processes in vivo make binding of [^18F]IV towards PDE10A non-detectable. […]
# Ex vivo autoradiography on the distribution of [^18F]IV in mouse brain (n = 1) was performed on sagittal brain sections obtained at 30 min after i.v. injection of 100 MBq of [^18F]IV. […] After exposition to ^18F-sensitive storage phosphor screens for 60 min, image plates were analyzed using a bioimaging analyzer system (see above).
# [5] = blocking with 10 mg/kg I, 60 min p.i.
# [6] = blocking with 10 mg/kg MP-10, 60 min p.i.
structure (smiles),measurement,setting,value
"COc1cc2c(N3CC[C@@H](Oc4cnc5ccccc5n4)C3)ncnc2cc1OCC[18F] [[^18F]IV, (R)-7-(2-[^18F]Fluoroethoxy)-6-methoxy-4-(3-(quinoxalin-2-yloxy)pyrrolidin-1-yl)quinazoline]",logD,[1],~2.7
same,native [18F]IV remaining intact,"[2]; 0.01 M TRIS-HCl buffer (pH 7.4 at 21 °C), 40 °C",≥ 99%
same,native [18F]IV remaining intact,"[2]; 0.9% sodium chloride solution (pH 7.2), 40 °C, radio-TLC",≥ 99%
same,radioligand stability,"[2]; acetonitrile, 1 h, 80 °C",98%
same,radioligand stability,"[2]; ethanol, 1 h, 80 °C",98%
same,radioligand stability,"[2]; ethanol, 1.5 h, 40 °C",≥ 99%
same,native [18F]IV remaining intact,"[2]; physiological phosphate-saline (pH 7.2), 40 °C",97%
same,change in accumulated radioactivity in PDE10A-expressing organs after pre-injection of MP-10 or compound I,"PDE10A [3]; 10 mg/kg i.p. 10 min before radiotracer, 60 min p.i., p > 0.05",no significant changes
same,"18F uptake, Adrenals",PDE10A [3]; [5],51.1 ± 17.9 % ID/g
same,"18F uptake, Bladder",PDE10A [3]; [5],2.20 ± 0.49 % ID/g
same,"18F uptake, Blood",PDE10A [3]; [5],1.72 ± 0.16 % ID/g
same,"18F uptake, Brain",PDE10A [3]; [5],1.13 ± 0.17 % ID/g
same,"18F uptake, Colon",PDE10A [3]; [5],1.07 ± 0.22 % ID/g
same,"18F uptake, Femurs",PDE10A [3]; [5],1.62 ± 0.72 % ID/g
same,"18F uptake, Femurs (fl.) (flushed)",PDE10A [3]; [5],0.81 ± 0.13 % ID/g
same,"18F uptake, Gonads",PDE10A [3]; [5],3.30 ± 0.29 % ID/g
same,"18F uptake, Heart",PDE10A [3]; [5],2.30 ± 0.22 % ID/g
same,"18F uptake, Intestine",PDE10A [3]; [5],44.3 ± 9.58 % ID/g
same,"18F uptake, Kidneys",PDE10A [3]; [5],4.01 ± 0.54 % ID/g
same,"18F uptake, Liver",PDE10A [3]; [5],12.9 ± 1.08 % ID/g
same,"18F uptake, Lungs",PDE10A [3]; [5],2.62 ± 0.44 % ID/g
same,"18F uptake, Muscles",PDE10A [3]; [5],1.27 ± 0.25 % ID/g
same,"18F uptake, Pancreas",PDE10A [3]; [5],2.25 ± 0.26 % ID/g
same,"18F uptake, Plasma",PDE10A [3]; [5],2.70 ± 0.24 % ID/g
same,"18F uptake, Skin",PDE10A [3]; [5],2.26 ± 0.82 % ID/g
same,"18F uptake, Spleen",PDE10A [3]; [5],2.48 ± 0.68 % ID/g
same,"18F uptake, Stomach",PDE10A [3]; [5],13.8 ± 1.65 % ID/g
same,"18F uptake, Striatum",PDE10A [3]; [5],1.28 ± 0.27 % ID/g
same,"18F uptake, Thymus",PDE10A [3]; [5],2.22 ± 0.08 % ID/g
same,"18F uptake, Urine",PDE10A [3]; [5],18.0 ± 9.26 % ID/g
same,"18F uptake, Adrenals",PDE10A [3]; [6],36.0 ± 9.51 % ID/g
same,"18F uptake, Bladder",PDE10A [3]; [6],2.93 ± 0.51 % ID/g
same,"18F uptake, Blood",PDE10A [3]; [6],1.85 ± 0.50 % ID/g
same,"18F uptake, Brain",PDE10A [3]; [6],1.30 ± 0.20 % ID/g
same,"18F uptake, Colon",PDE10A [3]; [6],1.78 ± 0.78 % ID/g
same,"18F uptake, Femurs",PDE10A [3]; [6],1.73 ± 0.58 % ID/g
same,"18F uptake, Femurs (fl.) (flushed)",PDE10A [3]; [6],0.92 ± 0.23 % ID/g
same,"18F uptake, Gonads",PDE10A [3]; [6],4.10 ± 1.41 % ID/g
same,"18F uptake, Heart",PDE10A [3]; [6],2.89 ± 0.42 % ID/g
same,"18F uptake, Intestine",PDE10A [3]; [6],14.8 ± 4.16 % ID/g
same,"18F uptake, Kidneys",PDE10A [3]; [6],5.87 ± 1.56 % ID/g
same,"18F uptake, Liver",PDE10A [3]; [6],17.7 ± 3.87 % ID/g
same,"18F uptake, Lungs",PDE10A [3]; [6],2.95 ± 0.86 % ID/g
same,"18F uptake, Muscles",PDE10A [3]; [6],1.29 ± 0.37 % ID/g
same,"18F uptake, Pancreas",PDE10A [3]; [6],3.19 ± 0.91 % ID/g
same,"18F uptake, Plasma",PDE10A [3]; [6],3.34 ± 1.00 % ID/g
same,"18F uptake, Skin",PDE10A [3]; [6],2.43 ± 0.44 % ID/g
same,"18F uptake, Spleen",PDE10A [3]; [6],3.00 ± 0.79 % ID/g
same,"18F uptake, Stomach",PDE10A [3]; [6],14.6 ± 7.83 % ID/g
same,"18F uptake, Striatum",PDE10A [3]; [6],1.38 ± 0.30 % ID/g
same,"18F uptake, Thymus",PDE10A [3]; [6],2.55 ± 0.62 % ID/g
same,"18F uptake, Urine",PDE10A [3]; [6],14.7 ± 7.17 % ID/g
same,"accumulation in PDE10A-expressing brain regions (caudate putamen, olfactory tubercle, cerebellum)",PDE10A [4],no target specific accumulation; also recorded: free of significant accumulation
